Reference: patent US10195156B2, “Compounds and compositions for intracellular delivery of agents” (ModernaTX, Inc., priority 2015, dated 2019)

How the values were obtained:
[1] = Particle size and polydispersity index of nanoparticle compositions (Zetasizer Nano ZS); type: physicochemical; conditions: for particle size, rank within the named table (in words): comparison amongst compositions
In short: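 Zetasizer Nano ZS; samples in 1×PBS; read-out: particle size plus polydispersity index.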

[2] = Encapsulation efficiency of RNA (QUANT-IT RIBOGREEN RNA assay); type: physicochemical; conditions: for encapsulation efficiency, rank within the named table (in words): comparison amongst compositions
In short: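 RiboGreen fluorescence (ex ~480, em ~520 nm) measured after 15 min at 37 °C on samples at ~5 μg/mL in TE, pH 7.5, ± 2% Triton X-100 solution. After blank subtraction, free RNA is given as intact-sample signal divided by disrupted-sample signal.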

[3] = pKa of nanoparticle compositions; type: physicochemical
[4] = system: luciferase (Luc) mRNA expression; assay: Expression of Luc induced by sample formulations, whole-body bioluminescence after intravenous administration; type: in vivo; conditions: mice, i.v., 0.5 mg/kg
In short: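 Read-out is whole-body bioluminescence at 3, 6 and 24 h after a single intravenous dose of 0.5 mg/kg Luc mRNA in nanoparticle formulations. Groups of n=6 mice; PBS and standard MC3 formulation as references.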

[5] = system: modified luciferase expression; assay: Expression of Luc in different organs (liver, lung, spleen, femur) 6 hours after intravenous administration; type: in vivo; conditions: i.v., 0.5 mpk
Experimental: The efficacy of the nanoparticle compositions presented in Tables 1, 1a, 17-1, 19-1, 20-1 and 21-1 was further evaluated by measuring the expression of modified luciferase in the liver, lung, spleen, and femur upon administration of a given composition. Formulations were administered intravenously to mice (n=3) at a dosage of 0.5 mpk and bioluminescence measured after 6 hours. The standard MC3 formulation and a PBS control were also tested.

[6] = system: IL-6; assay: Cytokine production induced by sample formulations: IL-6; type: in vivo; conditions: mice, i.v., 0.5 mpk, 6 hours; for IL-6: in pg/mL (unit assumed)
In short: (§1)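 Cytokine levels were quantified at 6 hours in mice given the nanoparticle compositions i.v. at 0.5 mpk. MC3 standard formulation and PBS served as comparators.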

[7] = system: IP-10; assay: Cytokine production induced by sample formulations: IP-10; type: in vivo; conditions: mice, i.v., 0.5 mpk, 6 hours; for IP-10: in pg/mL (unit assumed)
In short: as §1

[8] = Table 1, * lipid:DSPC:Chol:PEG-DMG 50:10:38.5:1.5
[9] = Table 20-1, rows without footnote mark
[10] = Table 1, rows without footnote mark
[11] = Table 1, rows without footnote mark (lipid:DOPE:cholesterol:PEG-DMG 40:20:38.5:1.5, Luc mRNA; MC3 standard formulation)

SMILES	PDI [1, 9]	Size (nm) [1, 9]	particle size, rank within the named table (in words) [1]	EE (%) [2, 9]	pKa [3, 9]	IL-6 ([6]; Table 20-4, formula (20-I))	IP-10 ([7]; Table 20-4, formula (20-I))	Total Flux 3 hours ([4]; Table 20-2)	Total Flux 6 hours ([4]; Table 20-2)	Total Flux 24 hours ([4]; Table 20-2)	Total Flux Femur ([5]; Table 20-3, mice)	Total Flux Liver ([5]; Table 20-3, mice)	Total Flux Lung ([5]; Table 20-3, mice)	Total Flux Spleen ([5]; Table 20-3, mice)	also measured
CCCCC/C=C\C/C=C\CCCCCCCCN(CCCCCCCC/C=C\C/C=C\CCCCC)CCN(CCCCCCCC/C=C\C/C=C\CCCCC)CCN1CCNCC1 [Compound 41, N^1,N^1,N^2-Tri((9Z,12Z)-octadeca-9,12-dien-1-yl)-N^2-(2-(piperazin-1-yl)ethyl)ethane-1,2-diamine]															Size (nm) ([1]; Table 1, * formulated with lipid:DSPC:Chol:PEG-DMG 50:10:38.5:1.5): 69.0 nm; PDI [1, 8]: 0.239; EE (%) [2, 8]: 99.9%; encapsulation efficiency, rank within the named table (in words) [2]: highest; pKa [3, 8]: 7.02; Total Flux 3 hours ([4]; Table 2): 4.06E+07; Total Flux 6 hours ([4]; Table 2): 2.04E+07; Total Flux 24 hours ([4]; Table 2): 6.05E+07; Total Flux Liver ([5]; Table 3, mice): 3.00E+06; Total Flux Lung ([5]; Table 3, mice): 1.34E+05; Total Flux Spleen ([5]; Table 3, mice): 2.13E+06; IL-6 ([6]; Table 4): 116; IP-10 ([7]; Table 4): 350
CCCCCCCCCN(CCO)CCCCCCCCC [Compound 17-10, 2-(Dinonylamino)ethan-1-ol]			largest particles												PDI ([1]; Table 17-1): 0.239; Size (nm) ([1]; Table 17-1): 165.0 nm; EE (%) ([2]; Table 17-1): 30.3%; encapsulation efficiency, rank within the named table (in words) [2]: did not encapsulate RNA with high efficiency; pKa ([3]; Table 17-1): 2.85; Total Flux 3 hours ([4]; Table 17-2): 6.61E+05; Total Flux 6 hours ([4]; Table 17-2): 1.16E+06; Total Flux 24 hours ([4]; Table 17-2): 4.06E+05; Total Flux Liver ([5]; Table 17-3, mice): 2.00E+05; Total Flux Lung ([5]; Table 17-3, mice): 2.52E+04; Total Flux Spleen ([5]; Table 17-3, mice): 1.74E+04; IL-6 ([6]; Table 17-4): 7.33; IL-6 induction, rank within the named table (in words) [6]: lowest IL-6 levels; IP-10 ([7]; Table 17-4): 243
CCCCCCCCCCCCCCN(CCCCCCCCCCCCCC)CCN(CCCCCCCCCCCCCC)CCN1CCN(CCN(CCCCCCCCCCCC)CCCCCCCCCCCC)CC1 [Compound 31, N^1-(2-(4-(2-(Didodecylamino)ethyl)piperazin-1-yl)ethyl)-N^1,N^2,N^2-tritetradecylethane-1,2-diamine]															PDI [1, 10]: 0.130; Size (nm) [1, 11]: 87.9 nm; EE (%) [2, 10]: 77.5%; pKa [3, 10]: 6.31; Total Flux 3 hours ([4]; Table 2): 1.43E+10; Total Flux 6 hours ([4]; Table 2): 1.42E+10; Total Flux 24 hours ([4]; Table 2): 3.07E+08; Total Flux Femur ([5]; Table 3, mice): 9.89E+05; Total Flux Liver ([5]; Table 3, mice): 1.54E+09; Total Flux Lung ([5]; Table 3, mice): 9.81E+06; Total Flux Spleen ([5]; Table 3, mice): 1.28E+07; IL-6 ([6]; Table 4): 188; IP-10 ([7]; Table 4): 2513
CCCCC/C=C\C/C=C\CCCCCCCCN(CCO)CCCCCC [Compound 17-2, 2-(Hexyl((9Z,12Z)-octadeca-9,12-dien-1-yl)amino)ethan-1-ol]			largest particles												PDI ([1]; Table 17-1): 0.104; Size (nm) ([1]; Table 17-1): 136.9 nm; EE (%) ([2]; Table 17-1): 57.2%; encapsulation efficiency, rank within the named table (in words) [2]: did not encapsulate RNA with high efficiency; pKa ([3]; Table 17-1): 6.92; Total Flux 3 hours ([4]; Table 17-2): 2.83E+05; Total Flux 6 hours ([4]; Table 17-2): 3.76E+05; Total Flux 24 hours ([4]; Table 17-2): 2.64E+05; Total Flux Liver ([5]; Table 17-3, mice): 6.42E+04; Total Flux Lung ([5]; Table 17-3, mice): 1.96E+04; Total Flux Spleen ([5]; Table 17-3, mice): 4.16E+04; IL-6 ([6]; Table 17-4): 9.88; IL-6 induction, rank within the named table (in words) [6]: lowest IL-6 levels; IP-10 ([7]; Table 17-4): 72.8; IP-10 induction, rank or comparison with IL-6 (in words) [7]: lowest IP-10 levels
CCCCCCCCCCCCN(CCCCCCCCCCCC)CCN1CCN(CCN(CCCCCCCCC)CCN(CCCCCCCCC)CCCCCCCCC)CC1 [Compound 19, N^1-(2-(4-(2-(Didodecylamino)ethyl)piperazin-1-yl)ethyl)-N^1,N^2,N^2-trinonylethane-1,2-diamine]															PDI [1, 10]: 0.100; Size (nm) [1, 11]: 76.1 nm; EE (%) [2, 10]: 97.2%; pKa [3, 10]: 6.29; Total Flux 3 hours ([4]; Table 2): 1.06E+10; Total Flux 6 hours ([4]; Table 2): 6.52E+09; Total Flux 24 hours ([4]; Table 2): 2.65E+09; Total Flux Femur ([5]; Table 3, mice): 2.75E+06; Total Flux Liver ([5]; Table 3, mice): 1.89E+09; Total Flux Lung ([5]; Table 3, mice): 2.27E+06; Total Flux Spleen ([5]; Table 3, mice): 8.28E+06; IL-6 ([6]; Table 4): 70; IP-10 ([7]; Table 4): 2326

Continued, in another order:

PDI [1, 9]	Size (nm) [1, 9]	particle size, rank within the named table (in words) [1]	EE (%) [2, 9]	pKa [3, 9]	IL-6 ([6]; Table 20-4, formula (20-I))	IP-10 ([7]; Table 20-4, formula (20-I))	SMILES	Total Flux 3 hours ([4]; Table 20-2)	Total Flux 6 hours ([4]; Table 20-2)	Total Flux 24 hours ([4]; Table 20-2)	Total Flux Femur ([5]; Table 20-3, mice)	Total Flux Liver ([5]; Table 20-3, mice)	Total Flux Lung ([5]; Table 20-3, mice)	Total Flux Spleen ([5]; Table 20-3, mice)	also measured
0.141	67.9 nm	smallest particles	96.6%	6.43	18.4	134.0	CCCCCCCCCCCCN(CCCCCCCCCCCC)CCN(CCO)CCCCCCCC(=O)OCCCCCCCCC [Compound 20-8, Nonyl 8-((2-(didodecylamino)ethyl)(2-hydroxyethyl)amino)octanoate]	2.76E+09	4.37E+09	1.30E+08	1.62E+06	8.09E+08	3.45E+06	2.70E+07	
0.118	67.4 nm	smallest particles	97.4%	6.48	49.4	136.3	CCCCCCCCCCCCN(CCCCCCCCCCCC)CCN(CCO)CCCCCC [Compound 20-15, 2-((2-(Didodecylamino)ethyl)(hexyl)amino)ethan-1-ol]	3.36E+08	2.25E+08	2.08E+07		6.74E+07	5.56E+05	1.86E+06	
0.171	71.7 nm		98.4%	6.23	20.6	188.0	CCCCC/C=C\C/C=C\CCCCCCCCN(CCO)CCN(CCCCCCCCCCCC)CCCCCCCCCCCC [Compound 20-25, 2-((2-(Didodecylamino)ethyl)((9Z,12Z)-octadeca-9,12-dien-1-yl)amino)ethan-1-ol]	1.16E+09	1.78E+09	3.82E+07	3.13E+05	1.88E+08	7.85E+05	4.16E+06	
0.118	96.1 nm		97.5%	5.38	46.9	1700.5	CCCCCCCCCCCCCCN(CCCCCCCCCCCCCC)CCN(CCCO)CCCCCCCCCCCC [Compound 20-11, 3-((2-(Ditetradecylamino)ethyl)(dodecyl)amino)propan-1-ol]	1.44E+09	8.83E+08	2.40E+07		3.60E+08	5.86E+05	9.24E+06	
0.130	71.8 nm		91.6%	6.60	118.5	522.9	CCCCCCCCCCCCN(CCO)CCN(CCCCCCCCCCCC)CCCCCC(=O)OCCCCC [Compound 20-2, Pentyl 6-(dodecyl(2-(dodecyl(2-hydroxyethyl)amino)ethyl)amino)hexanoate]	1.35E+09	2.18E+09	6.49E+07	1.07E+06	6.01E+08	4.52E+06	3.12E+07	
0.217	147.1 nm	largest particles	82.3%	6.58	445.7	3864.5	CCCCCCCCCCCCCCN(CCO)CCN(CCCCCCCCCCCCCC)CCCCCCCCCCCCCC [Compound 20-12, 2-((2-(Ditetradecylamino)ethyl)(tetradecyl)amino)ethan-1-ol]	1.57E+09	1.84E+09	1.24E+08	1.37E+06	3.08E+08	3.58E+06	6.15E+07	
